Results as given in paper PMC7037232, “Effect of Cholesterol on the Organic Cation Transporter OCTN1 (SLC22A4)” (International Journal of Molecular Sciences, 2020).
“And” between values parts separate entries of the source, which are not always exact repeats. Equal values may be shown once.

What was measured:
[1] = target: T1, recombinant OCTN1 (Homo sapiens, UniProt Q9H015); test: [3H]-acetylcholine uptake in proteoliposomes reconstituted with recombinant OCTN1 over-expressed in E. coli; type: biochemical; conditions: for IC50: [3H]-acetylcholine uptake 0.1 mM, 20 min
T1 construct: made in house; host or cells: E. coli
T1 sequence (Q9H015 1-551): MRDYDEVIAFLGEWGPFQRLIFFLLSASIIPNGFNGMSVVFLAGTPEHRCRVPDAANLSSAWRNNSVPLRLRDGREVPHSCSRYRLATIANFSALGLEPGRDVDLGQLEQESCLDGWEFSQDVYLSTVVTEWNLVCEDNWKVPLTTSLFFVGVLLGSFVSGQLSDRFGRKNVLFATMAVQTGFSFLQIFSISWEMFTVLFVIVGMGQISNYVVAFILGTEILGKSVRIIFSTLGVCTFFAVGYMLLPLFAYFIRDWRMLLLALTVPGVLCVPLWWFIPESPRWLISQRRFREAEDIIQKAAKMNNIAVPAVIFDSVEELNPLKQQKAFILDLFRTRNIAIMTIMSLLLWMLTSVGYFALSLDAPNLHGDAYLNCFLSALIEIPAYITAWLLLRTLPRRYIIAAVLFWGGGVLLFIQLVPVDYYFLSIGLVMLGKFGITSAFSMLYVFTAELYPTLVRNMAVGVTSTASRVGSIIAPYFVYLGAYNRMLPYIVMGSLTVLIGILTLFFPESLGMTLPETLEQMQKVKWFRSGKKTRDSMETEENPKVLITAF
Procedure: (§1) OCTN1 over-expressed in E. coli and purified as previously described was used for reconstitution in liposomes. The composition of the initial mixture used for reconstitution (except when differently indicated) was 200 µL of the purified protein (5 µg protein in 0.05% DDM), CHS at the indicated concentrations solubilized in 240 µL of 20 mM Tris/HCl (pH 7.5) and 5% Triton X-100 or buffer and Triton X-100 alone in the case of samples without CHS, 120 µL of 10% egg yolk phospholipids in the form of sonicated liposomes prepared as previously described, 16 mM ATP and (where indicated) in a final volume of 700 μL. The purified OCTN1 inserted in liposomal membrane by removing the detergent from mixed micelles containing detergent, protein, and phospholipids with Amberlite XAD-4 in a batch-wise procedure. Where indicated, proteoliposome internal volume was measured using a colorimetric phosphate method. In detail, 30 mM dipotassium phosphate (K2HPO4) was added to the reconstitution mixture. After elution from Sephadex G75 pre-equilibrated with 5 mM Tris/HCl (pH 7.5), 100 µL of sample were used for the colorimetric reaction. A solution containing 150 µL of 10% SDS was used to solubilize liposomal membranes. Then, 700 µL of a solution prepared with 10 mM hexammonium heptamolybdate 4-hydrate, 0.3 mM H2SO4 and 0.1 mM FeSO4 was added starting an incubation of 30 min in the dark. At the end, absorbance from each sample was measured at 578 nm. Internal volume in µL was derived from nmol of phosphate incorporated in liposomes.
(§2) Proteoliposomes (550 µL) were passed through a Sephadex G-75 column (0.7 cm diameter x 15 cm height) pre-equilibrated with 5 mM Tris/HCl (pH 7.5). The first 550 µL turbid eluate was collected and divided in aliquots (samples) of 100 µL each. Transport was started by adding 0.1 mM [^14C]-TEA or [^3H]-acetylcholine to the proteoliposome samples and stopped by adding 0.5 mM HgCl2 at the desired time interval. In control samples, the inhibitor was added at time zero according to the inhibitor stop method. Finally, each sample of proteoliposomes (100 µL) was passed through a Sephadex G-75 column (0.6 cm diameter × 8 cm height) in order to separate the external from the internal radioactivity. Liposomes were eluted with 1 mL of 50 mM NaCl and collected in 4ml of scintillation mixture, vortexed, and counted. The experimental values were corrected by subtracting the respective controls. The uptake time course data were interpolated using a first order rate equation from which rate constants were derived as the product of k (the first order rate constant) and the transport at the equilibrium. Data from dose-response experiments were fitted into an IC50 equation. For kinetic experiments the initial rate of transport expressed as nmol ⋅ min^−1 ⋅ mg protein^−1, was measured by stopping the reaction after 10 min, i.e., within the initial linear range of [^14C]-TEA or [^3H]-acetylcholine uptake into the proteoliposomes. Kinetic constants were estimated from interpolation of the experimental data into a Lineweaver–Burk equation. The Grafit (version 5.0.3) software was used for calculations.

[2] = target: T1, recombinant OCTN1; test: [14C]-TEA uptake in proteoliposomes reconstituted with recombinant OCTN1 over-expressed in E. coli; type: biochemical; conditions: for IC50: [14C]-TEA uptake 0.1 mM, 20 min
Procedure: as §1
(§3) Proteoliposomes reconstituted with the recombinant OCTN1 and added or not with CHS were incubated with MβCD as above described and then, MβCD was removed by chromatography on Sephadex G-75 column as described in Section 4.7.
as §2

[3] = target: T1, recombinant OCTN1; test: Immunodetection of OCTN1 incorporated in proteoliposomes (anti-His antibody)
[4] = Enzymatic quantitation of cholesterol/CHS in proteoliposome lipids; conditions: proteoliposomes with initial 8.3% CHS, 10 mM MβCD
Procedure: as §3
Quantitation was performed using the Cholesterol Quantitation Kit MAK043 by Merck Life Science s.r.l., 20149 Milan, Italy,). Assay was performed in the presence of cholesterol esterase with absorbance measured on a microplate reader at 570 nm.

[5] = target: T2, native human OCTN1 (Homo sapiens, UniProt Q9H015); test: [14C]-TEA uptake in proteoliposomes reconstituted with native OCTN1 extracted from HeLa cells; type: biochemical; conditions: 0.1 mM [14C]-TEA
T2 construct: the native human OCTN1, the protein extracted from HeLa cells was exploited; endogenous in cells; host or cells: HeLa cells (Triton X-100 extract reconstituted in proteoliposomes)
T2 sequence (Q9H015 1-551): T1 sequence (Q9H015 1-551)
Procedure: HeLa cells pellet was treated with 150 µL TX-100 10%. After vortexing cells have been incubated 30 min on ice and then centrifuged 10 min 12.000× g at 4 °C. The cell membrane extract (supernatant) was used for the reconstitution. 30 µL supernatant were included to the reconstitution mixture containing 120 µL 10% egg yolk phospholipids in the form of sonicated liposomes prepared as previously described, 80 µL 10% Triton X-100 solution, 16 mM ATP, 7 µL of 500 mM Tris/HCl (pH 7.5) in a final volume of 700 μL.
Each HeLa cell sample or HeLa cell extract was incubated with 10 mM MβCD for 90 min at 37 °C under stirring. Then, the respective extracts were reconstituted in proteoliposomes.
Proteoliposomes (550 µL) were passed through a Sephadex G-75 column (0.7 cm diameter x 15 cm height) pre-equilibrated with 5 mM Tris/HCl (pH 7.5). […] Finally, each sample of proteoliposomes (100 µL) was passed through a Sephadex G-75 column (0.6 cm diameter × 8 cm height) in order to separate the external from the internal radioactivity. Liposomes were eluted with 1 mL of 50 mM NaCl and collected in 4ml of scintillation mixture, vortexed, and counted. […] For kinetic experiments the initial rate of transport expressed as nmol ⋅ min^−1 ⋅ mg protein^−1, was measured by stopping the reaction after 10 min, i.e., within the initial linear range of [^14C]-TEA or [^3H]-acetylcholine uptake into the proteoliposomes. […]

[6] = substrate: CC(=O)OCC[N+](C)(C)C; test: [3H]-acetylcholine uptake in proteoliposomes reconstituted with recombinant OCTN1 over-expressed in E. coli; type: biochemical, human; conditions: other: in the absence of CHS; pH 7.5
Procedure: OCTN1 over-expressed in E. coli and purified as previously described was used for reconstitution in liposomes. The composition of the initial mixture used for reconstitution (except when differently indicated) was 200 µL of the purified protein (5 µg protein in 0.05% DDM), CHS at the indicated concentrations solubilized in 240 µL of 20 mM Tris/HCl (pH 7.5) and 5% Triton X-100 or buffer and Triton X-100 alone in the case of samples without CHS, 120 µL of 10% egg yolk phospholipids in the form of sonicated liposomes prepared as previously described, 16 mM ATP and (where indicated) in a final volume of 700 μL. […] Where indicated, proteoliposome internal volume was measured using a colorimetric phosphate method. […] At the end, absorbance from each sample was measured at 578 nm. […]
Proteoliposomes (550 µL) were passed through a Sephadex G-75 column (0.7 cm diameter x 15 cm height) pre-equilibrated with 5 mM Tris/HCl (pH 7.5). […] Finally, each sample of proteoliposomes (100 µL) was passed through a Sephadex G-75 column (0.6 cm diameter × 8 cm height) in order to separate the external from the internal radioactivity. Liposomes were eluted with 1 mL of 50 mM NaCl and collected in 4ml of scintillation mixture, vortexed, and counted. […]

Molecule: [Na+] [Na^+]
- IC50 ([1]; in the presence of 8.3% CHS): 2200 ± 200 µM
- IC50 ([2]; in the presence of 8.3% CHS): 1700 ± 500 µM

Molecule: CC(C)CCC[C@@H](C)[C@H]1CC[C@H]2[C@@H]3CC=C4C[C@@H](OC(=O)CCC(=O)O)CC[C@]4(C)[C@H]3CC[C@]12C [CHS, Cholesteryl HemiSuccinate]
- transport of acetylcholine relative to control (without added cholesterol) ([1]; 8.3% CHS (83 µg CHS/mg total lipids), 0.1 mM [3H]-acetylcholine): about double the control
- CHS amount giving optimal transport activity ([1]; [3H]-acetylcholine uptake): 83 µg CHS/ mg total lipids
- relative concentration of immuno-stained OCTN1, normalized to 0% CHS (100%) ([3]; 2.1% CHS): 109 ± 14%
- relative concentration of immuno-stained OCTN1, normalized to 0% CHS (100%) ([3]; 4.2% CHS): 104 ± 5.8%
- relative concentration of immuno-stained OCTN1, normalized to 0% CHS (100%) ([3]; 8.3% CHS): 106 ± 9.1%
- transport of TEA relative to control (without added cholesterol) ([2]; 8.3% CHS (83 µg CHS/mg total lipids), 0.1 mM [14C]-TEA): about double the control
- CHS amount giving optimal transport activity ([2]; [14C]-tetraethylamonium uptake): 83 µg CHS/ mg total lipids

Molecule: Methyl-beta-CycloDextrin [MβCD]
- reduction of the initial CHS concentration [4]: 40%
- decrease in transport activity ([2]; proteoliposomes with 8.3% CHS incubated with 10 mM MβCD, 0.1 mM [14C]-TEA): 31%
- decrease of the native OCTN1 activity with respect to the control ([5]; HeLa cell extract incubated with 10 mM MβCD prior to reconstitution): 35%
- decrease of the native OCTN1 activity with respect to the control ([5]; HeLa cells incubated with 10 mM MβCD prior to solubilization): 23%

Molecule: C[N+]1(C)CCOC(O)(c2ccc(-c3ccc(C4(O)C[N+](C)(C)CCO4)cc3)cc2)C1 (stereo not shown) [hemicholinium]
- IC50 ([1]; in the absence of CHS): 530 ± 46 µM
- IC50 ([1]; in the presence of 8.3% CHS): 300 ± 52 µM

Molecule: CC[N+](CC)(CC)Cc1ccccc1 [TEBA, Benzyltriethylammonium]
- IC50 ([2]; in the absence of CHS): 1600 ± 300 µM
- IC50 ([2]; in the presence of 8.3% CHS): 1900 ± 700 µM

Molecule: Nc1ncnc2c1ncn2[C@@H]1O[C@H](COP(=O)(O)OP(=O)(O)OP(=O)(O)O)[C@@H](O)[C@H]1O [ATP]
- effect of intraliposomal ATP on transport ([1]; acetylcholine uptake, 8.3% CHS): stimulated the transport
- effect of intraliposomal ATP on transport ([2]; TEA uptake, 8.3% CHS): stimulated the transport

Molecule: [Cl][Hg][Cl] [HgCl2]
- IC50 ([2]; in the absence of CHS): 270 ± 50 µM
- IC50 ([2]; in the presence of 8.3% CHS): 200 ± 30 µM

Molecule: CC[N+](CC)(CC)CC [TEA, Tetraethylammonium]
- Km [2]: 900 µM and 800 µM
- Vmax of transport [2]: 36.1 ± 8.6 nmol ⋅ min^−1 ⋅ mg protein^−1 and 66.6 ± 16.4 nmol ⋅ min^−1 ⋅ mg protein^−1

B1: human recombinant OCTN1 (Homo sapiens) (protein)
chain: T1 sequence (Q9H015 1-551)
notes: made in house; host or cells: E. coli
- Km [6]: 1100 ± 370 µM
- Vmax [6]: 49.3 ± 12.4 nmol ⋅ min^−1 ⋅ mg protein^−1
